Laboratory results published in patent US20220062240A1, “METHODS OF TREATING CANCER USING A CLK INHIBITOR” (BioSplice Therapeutics, Inc., priority 2018, published 2022).
Where two headings read alike, the source gives them in different places.

What was measured:
[1] = tested on: SRSF6 and SRSF5 phosphorylation in SW480 cells; test: SR phosphorylation immunoblot; assay type: cell-based, human; settings: SW480, 1 hour
Description: FIG. 6A is an immunoblot showing phosphorylated SRSF6 and SRSF5 in SW480 cells treated as indicated for 1 hour. Total SRSF5 and R-actin blots were used as loading controls. The blots are representative of two experiments.
First, it was determined that CLK1, CLK2, and CLK3 localized into the nucleus, while CLK4 was predominantly detected in the cytoplasm (FIG. 5). […]. Zhou et al., Chromosoma 122, 191-207, 2013).
(§1) For indicated experiments, cells were pelleted by centrifugation and washed with PBS and protein from the cell pellet was fractionated into cytoplasmic and nuclear fractions using a NE-PER™Nuclear and Cytoplasmic Extraction Reagents kit containing Halt™ protease and phosphatase inhibitors (Thermo Fisher). Protein concentrations of the samples were quantified using the Pierce Micro BCA protein assay kit (Thermo Fisher). […] Primary antibodies were incubated overnight at 4° C., with GAPDH, Lamin B1 or β-actin being used as loading controls (refer to Table 19 for primary antibodies and dilutions used).

[2] = tested on: nuclear speckles in SW480 cells; test: Nuclear speckle staining (phospho-SC35); assay type: cell-based, human; settings: SW480, 6 hours, 0.3-10 μM
Description: […]. The cells were stained with a phospho-SC35 antibody (green) and a Hoechst 33342 nuclear stain (blue). Scale bar, 10 μm.
FIG. 9A is a set of representative immunofluorescence images (×100 magnification) of SW480 cells treated with indicated concentrations for 6 hours. The cells were stained with a phospho-SC35 antibody (green) and a Hoechst 33342 nuclear stain (blue). Scale bar, 10 μm.
[…]. After approximately 6 hr, cells were fixed and stained a phospho-SC35 antibody (Santa Cruz Biotechnology). Cells were then labelled with an Alexa-Fluor 488 secondary antibody (Thermo Fisher) containing DAPI (Thermo Fisher). Cells were imaged at 100× magnification.

SW480 cells [3] = test: Wnt pathway gene (qRT-PCR) and protein (immunoblot) expression; assay type: cell-based, human; settings: SW480, 24 hours, compared to DMSO
Description: Fold-change relative to DMSO is shown (n=3 biological replicates per group, Mean±SD, **P<0.01; ***P<0.001, student's two-tailed t-test).
(§2) FIG. 6D is an immunoblot showing Wnt pathway-related protein expression in SW480 cells treated as indicated for 24 hours. The proteins were separated into nuclear and cytoplasmic fractions. GAPDH and Lamin B1 represent cytoplasmic and nuclear protein loading controls, respectively. The blots are representative of two experiments.
as §2, with “6E” for “6D”, “48” for “24”
The fold-change relative to DMSO is shown (n=3 biological replicates per group, Mean±SD, *P<0.05; **P<0.01; ***P<0.001, student's two-tailed t-test).
FIG. 7C is an immunoblot showing protein expression of hits identified in FIG. 7A. SW480 cells were treated as indicated for 24 hours and proteins were separated into nuclear and cytoplasmic fractions. GAPDH and Lamin B1 represent the cytoplasmic and nuclear protein loading controls, respectively. The blots are representative of two experiments.
as §1
Total RNA was isolated using RNeasy Plus mini kit (Qiagen) or MagMAX Total RNA kit (Thermo Fisher) as per the manufacturers' protocol. cDNA was synthesized using the iScript cDNA Synthesis Kit (Bio-Rad), followed before performing qRT-PCR. Reactions were then run on a real-time PCR system (CFX384; Bio-Rad). Relative gene expression was determined by normalizing to GAPDH using the ΔΔCt method.

SW480 cells [4] = test: Cell viability assay in SW480 cells (Compound 12, CC-671, Harmine); assay type: cell-based; settings: Homo sapiens, SW480, 96 h, read-out: EC50 cell viability
Description: The data is representative from three independent assays performed in quadruplicate.

[5] = tested on: Wnt responsive TOPflash reporter in SW480 colon cancer cells; test: TOPflash β-catenin/TCF-responsive reporter assay; assay type: cell-based, human
Description: Human colorectal cancer cell line SW480, stably expressing the Wnt responsive TOPflash promoter linked to luciferase gene (TOPflash) was used along with SW480 stably expressing a control EF1a-Luciferase reporter gene (GenTarget #LVP434) as a counterscreen. […] Cells were plated at ˜10,000 cells/well and incubated for 40 hours. Luminescence was detected using Bright-Glo (Promega Corp.).

SMILES	SR phosphorylation (SRSF6, SRSF5) [1]	enlargement of nuclear speckles [2]	gene expression of AXIN2, LEF1, MYC, TCF7, CTNNB1 and TCF7L2 (SW480 cells [3])	EC50 (SW480 cells [4])	EC50 ([5]; Homo sapiens)	EC50 [5]
CNC(=O)c1ccc(Nc2nc(OC3CCCC3)c3c(-c4ccc5nc(C)oc5c4)c[nH]c3n2)c(OC)c1 [CC-671, reference compound]	not as effective as Compound 12	only at higher doses of 10 μM and 3 μM	minimal effect	–	–	–
COc1ccc2c(c1)[nH]c1c(C)nccc12 [Harmine]	not active	not observed	minimal effect	> 10 µM	> 10 µM	–
C[C@H]1[C@H]2N(C(=O)CN(C)N2C(=O)NCc2ccccc2)[C@@H](Cc2ccc(OP(=O)(O)O)cc2)C(=O)N1Cc1cccc2cccnc12 [PRI-724]	–	–	–	–	–	1.06 µM
